Key:
[1] = (§1) Pharmacokinetic parameters for Bicalutamide following single oral administration of Bicalutamide tablets to 30 healthy male subjects and 40 patients with prostrate cancer.; assay type: ADME, organism-based; design: route oral; conditions: human, in vivo, dosed compound id 25, dosed compound name BICALUTAMIDE, gender male, regimen Single dose, tissue Plasma
Homo sapiens = assay: as §1; assay type: ADME, organism-based; design: route oral; conditions: in vivo, po, dosed compound id 25, dosed compound name BICALUTAMIDE, gender male, regimen Single dose, tissue Plasma

Structure (SMILES): CC(O)(CS(=O)(=O)c1ccc(F)cc1)C(=O)Nc1ccc(C#N)c(C(F)(F)F)c1 (stereo not given) [BICALUTAMIDE]
- Cmax ([1]; po): 768 ng/mL
- CL/F ([1]; route oral): 5.33 mL/min
- Tmax ([1]; route oral): 31.3 h
- half-life ([1]; route oral): 139 h
- Css (Homo sapiens): 8939 ng/mL

Reference: ChEMBL document CHEMBL3832048, “DailyMed|setid=020d34eb-9560-4218-9d87-dfdeff705c3a | BICALUTAMIDE - bicalutamide tablet, film coated|Physicians Total Care, Inc”
